# Measured values from the supplement of paper PMC10307832.
# How the values were obtained:
# Assay in all cases: relative viability (nuclei count vs DMSO), 5 days (fraction); higher = more cells survive
# SW 900 = tested on: SW 900
# Outline: (§1)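 Cells from lung cancer lines were seeded into 1536-well plates and, one day later, dosed by pin tool. Treatments were either a single drug or a fixed dose of an anchor drug with five library-drug doses (not always all listed) in √10 steps. After 5 days, nuclei were stained in a one-step fixation (final 0.05% Triton X-100, 1% formaldehyde, 1 ug/ml Hoechst) and counted on 4× images, and relative viability is the treated-to-vehicle nuclei ratio, as the median of duplicate plates.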
# H3255 = tested on: H3255
# Outline: as §1
# NCI-H1563 = tested on: NCI-H1563
# Outline: as §1
# NCI-H1650 = tested on: NCI-H1650
# Outline: as §1
# LOU-NH91 = tested on: LOU-NH91
# Outline: as §1
# NCI-H2023 = tested on: NCI-H2023
# Outline: as §1
# EPLC-272H = tested on: EPLC-272H
# Outline: as §1
# NCI-H1734 = tested on: NCI-H1734
# Outline: as §1
# 201T = tested on: 201T
# Outline: as §1
# NCI-H2085 = tested on: NCI-H2085
# Outline: as §1
# RERF-LC-KJ = tested on: RERF-LC-KJ
# Outline: as §1
# COR-L23 = tested on: COR-L23
# Outline: as §1
# NCI-H2170 = tested on: NCI-H2170
# Outline: as §1
# NCI-H647 = tested on: NCI-H647
# Outline: as §1
# NCI-H1993 = tested on: NCI-H1993
# Outline: as §1
# NCI-H3122 = tested on: NCI-H3122
# Outline: as §1
# NCI-H441 = tested on: NCI-H441
# Outline: as §1
# NCI-H1793 = tested on: NCI-H1793
# Outline: as §1
# HCC-44 = tested on: HCC-44
# Outline: as §1
# PC-14 = tested on: PC-14
# Outline: as §1
# NCI-H520 = tested on: NCI-H520
# Outline: as §1
# NCI-H2405 = tested on: NCI-H2405
# Outline: as §1
# NCI-H2347 = tested on: NCI-H2347
# Outline: as §1
smiles,measurement,setting,value
O=C(O)c1ccc(-c2c[nH]c3ncc(-c4ccccc4)cc23)cc1C1CCCC1 + COc1cccc2cc(-c3nc([C@H]4CC[C@H](C(=O)O)CC4)n4ncnc(N)c34)[nH]c12 [OSI-027] (partner 0.5 µM),relative viability,SW 900; first compound 0.04 µM,0.696
same,relative viability,SW 900; first compound 0.1265 µM,0.493
same,relative viability,SW 900; first compound 0.4 µM,0.631
same,relative viability,SW 900; first compound 1.265 µM,0.595
same,relative viability,H3255; first compound 0.04 µM,0.671
same,relative viability,H3255; first compound 0.1265 µM,0.662
same,relative viability,H3255; first compound 0.4 µM,0.554
same,relative viability,H3255; first compound 1.265 µM,0.506
same,relative viability,NCI-H1563; first compound 0.04 µM,0.72
same,relative viability,NCI-H1563; first compound 0.1265 µM,0.753
same,relative viability,NCI-H1563; first compound 0.4 µM,0.783
same,relative viability,NCI-H1563; first compound 1.265 µM,0.798
same,relative viability,NCI-H1650; first compound 0.04 µM,0.544
same,relative viability,NCI-H1650; first compound 0.1265 µM,0.624
same,relative viability,NCI-H1650; first compound 0.4 µM,0.624
same,relative viability,NCI-H1650; first compound 1.265 µM,0.394
same,relative viability,LOU-NH91; first compound 0.04 µM,0.743
same,relative viability,LOU-NH91; first compound 0.1265 µM,0.824
same,relative viability,LOU-NH91; first compound 0.4 µM,0.733
same,relative viability,LOU-NH91; first compound 1.265 µM,0.73
same,relative viability,NCI-H2023; first compound 0.04 µM,0.516
same,relative viability,NCI-H2023; first compound 0.1265 µM,0.572
same,relative viability,NCI-H2023; first compound 0.4 µM,0.41
same,relative viability,NCI-H2023; first compound 1.265 µM,0.319
same,relative viability,EPLC-272H; first compound 0.04 µM,0.266
same,relative viability,EPLC-272H; first compound 0.1265 µM,0.283
same,relative viability,EPLC-272H; first compound 0.4 µM,0.292
same,relative viability,EPLC-272H; first compound 1.265 µM,0.281
same,relative viability,NCI-H1734; first compound 0.04 µM,0.621
same,relative viability,NCI-H1734; first compound 0.1265 µM,0.701
same,relative viability,NCI-H1734; first compound 0.4 µM,0.549
same,relative viability,NCI-H1734; first compound 1.265 µM,0.512
same,relative viability,201T; first compound 0.04 µM,0.693
same,relative viability,201T; first compound 0.1265 µM,0.682
same,relative viability,201T; first compound 1.265 µM,0.716
same,relative viability,NCI-H2085; first compound 0.04 µM,0.867
same,relative viability,NCI-H2085; first compound 0.1265 µM,0.761
same,relative viability,NCI-H2085; first compound 0.4 µM,0.73
same,relative viability,NCI-H2085; first compound 1.265 µM,0.554
same,relative viability,RERF-LC-KJ; first compound 0.04 µM,0.561
same,relative viability,RERF-LC-KJ; first compound 0.1265 µM,0.598
same,relative viability,RERF-LC-KJ; first compound 0.4 µM,0.582
same,relative viability,RERF-LC-KJ; first compound 1.265 µM,0.527
same,relative viability,COR-L23; first compound 0.04 µM,0.763
same,relative viability,COR-L23; first compound 0.1265 µM,0.876
same,relative viability,COR-L23; first compound 0.4 µM,0.701
same,relative viability,COR-L23; first compound 1.265 µM,0.511
same,relative viability,NCI-H2170; first compound 0.04 µM,0.734
same,relative viability,NCI-H2170; first compound 0.1265 µM,0.685
same,relative viability,NCI-H2170; first compound 0.4 µM,0.703
same,relative viability,NCI-H2170; first compound 1.265 µM,0.676
same,relative viability,NCI-H647; first compound 0.04 µM,0.701
same,relative viability,NCI-H647; first compound 0.1265 µM,0.716
same,relative viability,NCI-H647; first compound 0.4 µM,0.669
same,relative viability,NCI-H647; first compound 1.265 µM,0.574
same,relative viability,NCI-H1993; first compound 0.04 µM,0.521
same,relative viability,NCI-H1993; first compound 0.1265 µM,0.55
same,relative viability,NCI-H1993; first compound 0.4 µM,0.568
same,relative viability,NCI-H1993; first compound 1.265 µM,0.586
same,relative viability,NCI-H3122; first compound 0.04 µM,0.973
same,relative viability,NCI-H3122; first compound 0.1265 µM,1.12
same,relative viability,NCI-H3122; first compound 0.4 µM,0.922
same,relative viability,NCI-H3122; first compound 1.265 µM,0.717
same,relative viability,NCI-H441; first compound 0.04 µM,0.675
same,relative viability,NCI-H441; first compound 0.1265 µM,0.567
same,relative viability,NCI-H441; first compound 0.4 µM,0.571
same,relative viability,NCI-H441; first compound 1.265 µM,0.466
same,relative viability,NCI-H1793; first compound 0.04 µM,0.312
same,relative viability,NCI-H1793; first compound 0.1265 µM,0.362
same,relative viability,NCI-H1793; first compound 0.4 µM,0.288
same,relative viability,NCI-H1793; first compound 1.265 µM,0.283
same,relative viability,HCC-44; first compound 0.04 µM,0.512
same,relative viability,HCC-44; first compound 0.1265 µM,0.505
same,relative viability,HCC-44; first compound 0.4 µM,0.594
same,relative viability,HCC-44; first compound 1.265 µM,0.484
same,relative viability,PC-14; first compound 0.04 µM,0.759
same,relative viability,PC-14; first compound 0.1265 µM,0.86
same,relative viability,PC-14; first compound 0.4 µM,0.826
same,relative viability,PC-14; first compound 1.265 µM,0.877
same,relative viability,NCI-H520; first compound 0.04 µM,0.23
same,relative viability,NCI-H520; first compound 0.1265 µM,0.269
same,relative viability,NCI-H520; first compound 0.4 µM,0.336
same,relative viability,NCI-H520; first compound 1.265 µM,0.242
same,relative viability,NCI-H2405; first compound 0.04 µM,0.653
same,relative viability,NCI-H2405; first compound 0.1265 µM,0.626
same,relative viability,NCI-H2405; first compound 0.4 µM,0.617
same,relative viability,NCI-H2405; first compound 1.265 µM,0.605
same,relative viability,NCI-H2347; first compound 0.04 µM,0.451
same,relative viability,NCI-H2347; first compound 0.1265 µM,0.392
same,relative viability,NCI-H2347; first compound 0.4 µM,0.425
same,relative viability,NCI-H2347; first compound 1.265 µM,0.367
